Data taken from the NIST ThermoML archive (doi:10.1016/j.jct.2011.08.016).

Experiment: xn = mol fraction of the nth substance listed
Settings: Liquid, Vibrating tube method

CCCCCCCCCC [decane] + CCCCCCC
mass density [kg/m3]
Settings | x2 = 0.0531 | x2 = 0.2594 | x2 = 0.5219 | x2 = 0.777 | x2 = 0.952
343.09 K, 1000 kPa | 690.42 | – | 670.9 | 656.56 | –
343.09 K, 2000 kPa | 691.49 | – | 672.01 | 657.76 | –
343.09 K, 3000 kPa | 692.55 | – | 673.08 | 658.95 | –
343.09 K, 4000 kPa | 693.59 | – | 674.15 | 660.13 | –
343.09 K, 5000 kPa | 694.62 | – | 675.24 | 661.28 | –
343.09 K, 6000 kPa | 695.63 | – | 676.3 | 662.42 | –
343.09 K, 7000 kPa | 696.62 | – | 677.39 | 663.56 | –
343.09 K, 8000 kPa | 697.6 | – | 678.46 | 664.71 | –
343.09 K, 9000 kPa | 698.57 | – | 679.53 | 665.84 | –
343.09 K, 10000 kPa | 699.52 | – | 680.57 | 666.95 | –
343.09 K, 11000 kPa | 700.46 | – | 681.55 | 668.04 | –
343.09 K, 12000 kPa | 701.38 | – | 682.56 | 669.13 | –
343.09 K, 13000 kPa | 702.3 | – | 683.57 | 670.2 | –
343.09 K, 14000 kPa | 703.21 | – | 684.56 | 671.24 | –
343.09 K, 15000 kPa | 704.09 | – | 685.54 | 672.27 | –
343.09 K, 16000 kPa | 704.98 | – | 686.5 | 673.29 | –
343.09 K, 17000 kPa | 705.84 | – | 687.45 | 674.28 | –
343.09 K, 18000 kPa | 706.7 | – | 688.39 | 675.26 | –
343.09 K, 19000 kPa | 707.54 | – | 689.28 | 676.22 | –
343.09 K, 20000 kPa | 708.37 | – | 690.16 | 677.14 | –
343.09 K, 21000 kPa | 709.2 | – | 691.02 | 678.06 | –
343.09 K, 22000 kPa | 710 | – | 691.87 | 678.95 | –
343.09 K, 23000 kPa | 710.8 | – | 692.69 | 679.82 | –
343.09 K, 24000 kPa | 711.58 | – | 693.49 | 680.67 | –
343.09 K, 25000 kPa | 712.36 | – | 694.29 | 681.49 | –
343.11 K, 1000 kPa | – | 682.79 | – | – | 645.16
343.11 K, 2000 kPa | – | 683.83 | – | – | 646.47
343.11 K, 3000 kPa | – | 684.89 | – | – | 647.73
343.11 K, 4000 kPa | – | 685.87 | – | – | 649
343.11 K, 5000 kPa | – | 686.9 | – | – | 650.27
343.11 K, 6000 kPa | – | 687.93 | – | – | 651.49
343.11 K, 7000 kPa | – | 688.92 | – | – | 652.71
343.11 K, 8000 kPa | – | 689.92 | – | – | 653.91
343.11 K, 9000 kPa | – | 690.94 | – | – | 655.08
